{
  "source": "patent US11279733B2",
  "about": "“Peptide antibiotics” (priority 2017, dated 2022)",
  "key": {"[1]": {"assay": "In vitro nephrotoxicity, LDH release from primary human kidney cells", "assay_type": "cell-based", "conditions": "pH 7.4", "text": "(§1) hPT cells were derived from whole human kidneys procured by the International Institute for the Advancement of Medicine (Edison, N.J., USA). All tissue was scored by a pathologist as normal (i.e., derived from non-cancerous, non-diseased tissue). Cell isolation procedures were based on those originally described by Todd et al. (1996) and modified (Cummings and Lash, 2000; Cummings et al., 2000) with use of sterile conditions (i.e., all instruments and glassware were autoclaved and all buffers were filtered through a 0.2-μm pore-size filter). Renal cortex and outer stripe were cut into slices, washed with sterile PBS, minced, and the pieces were placed in a trypsinization flask filled with 300 ml of sterile, filtered Hanks' buffer, containing 25 mM NaHCO3, 25 mM HEPES, pH 7.4, 0.5 mM EGTA, 0.2% (w/v) bovine serum albumin, 50 μg/ml gentamicin, 1.3 mg/mL collagenase, and 0.59 mg/ml CaCl2), which was filtered prior to use. Whole kidneys were perfused with Wisconsin medium and kept on ice until they arrived at the laboratory, which was usually within 24 h of removal from the donor.\n(§2) All buffers were continuously bubbled with 95% O2/5% CO2 and were maintained at 37° C. Minced cortical pieces from whole kidneys were subjected to collagenase digestion for 60 min, after which the supernatant was filtered through a 70-μm mesh filter to remove tissue fragments, centrifuged at 150×g for 7 min, and the pellet resuspended in Dulbecco's Modified Eagle's Medium: Ham's F12 Medium (DMEM/F12; 1/1). Approximately 5 to 7×10^6 cells were obtained per 1 g of human kidney cortical tissue.\n(§3) hPT cells were resuspended in 2 mL of DMEM/F12 and diluted to 500 mL with cell culture medium, which was serum-free and hormonally-defined. Composition of this supplemented medium was based on earlier work establishing optimal conditions for primary culture of rat PT cells (Lash et al., 1995). Basal medium was a 1:1 mixture of DMEM/F12. […] Cells were seeded in a volume of 0.5 ml at a density of 50-100 μg protein per cm^2 (0.5-1.0×10^6 cells/ml) on 24-well plates. Cultures were grown at 37° C. in a humidified incubator under an atmosphere of 95% air/5% CO2 at pH 7.4. Cultures were grown to approximately 80%-90% confluence (generally 5-6 days) prior to experiments. Cells were harvested by either scraping the flasks with a Teflon scraper or by brief incubation with Cellstripper (Cellgro, Herndon, Va., USA) (in Ca^2+- and Mg^2+-free Hanks' buffer)."}, "[2]": {"assay": "In vitro nephrotoxicity, GGT release from primary human kidney cells", "assay_type": "cell-based", "conditions": "pH 7.4", "text": "as §1, §2, §3\nRelease of gamm-glutanyltransferase was assessed according to Orlowski, M., Meister, A. 1963. γ-Glutamyl-p-nitroanilide: A new convenient substrate for determination and study of L- and D-γ-glutamyltranspeptidase activities (Biochim. Biophys. Acta 73: 679-681.)\nA 2.5 mM substrate Solution was prepared from 67 mg γ-glutamyl-p-nitroanilide+264 mg glycylglycine in 100 mL of 0.05 M Tris, pH 8.2 (50 mM Tris, pH 8.2: 605 mg Tris/HCl per 100 mL).\nFor the assay in 96-well plates, 6-μL of sample and 0.3 mL substrate solution were added to each well. The absorbance was measured at 410 nm for the appearance of product, p-nitroanilide (molar extinction=8800 M^−1 cm^−1)."}, "Neisseria gonorrhoeae": {"tested_on": "Neisseria gonorrhoeae", "assay": "MIC determination, Neisseria gonorrhoeae", "assay_type": "cell-based", "conditions": "strain FA19 ATCC BAA-1838", "protocol": "Bacteria were either obtained from American Type Culture Collection (ATCC; Manassas, Va., USA) or independent academic clinical isolate collections, as listed in Table 18 below. Bacteria were cultured in Nutrient broth (NB; Bacto Laboratories, catalogue No. 234000) or Mueller Hinton broth (MHB; Bacto Laboratories, catalogue No. 211443) at 37° C. overnight with shaking (˜180 RPM). A sample of each culture was then diluted 50-fold in fresh MHB and incubated at 37° C. for 2-3 h with shaking (˜180 RPM). Compound stock solutions were prepared as 0.64 mg/mL or 2.56 mg/mL in water. The compounds, at twice the final desired concentration, were serially diluted 2-fold across the wells of 96-well plates (Polystyrene, Corning, catalogue No. 3370). Mid-log phase bacterial cultures (after 2-3 h incubation) were diluted to a final concentration of 1×10^6 colony forming units (CFU)/mL, and 50 μL was added to each well giving a final cell density of 5×10^5 and a compound concentration range of 32 μg/mL to 0.015 μg/mL (128-0.06 μg/mL against P. aeruginosa PA9704)."}, "[3]": {"tested_on": "S. aureus ATCC 25923, MSSA", "conditions": "ATCC 25923", "outline": "(§4)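 Mid-log cultures grown in Mueller Hinton broth at 37° C were tested by 2-fold broth microdilution at 5×10^5 CFU/mL final. Compounds were dissolved in water and tested over a final range of 32 to 0.015 μg/mL.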"}, "[4]": {"tested_on": "K. pneumoniae ATCC 700603, MDR", "conditions": "ATCC 700603", "outline": "as §4"}, "[5]": {"tested_on": "P. aeruginosa GN_105, PmxR", "conditions": "GN 105, PmxR", "outline": "as §4"}, "E. coli ATCC 25922": {"tested_on": "E. coli ATCC 25922", "conditions": "ATCC 25922", "outline": "as §4"}, "[6]": {"tested_on": "K. pneumoniae GN_106, PmxR", "conditions": "GN 106, PmxR", "outline": "as §4"}, "[7]": {"tested_on": "K. pneumoniae GN_102 PmxR", "conditions": "GN 102 PmxR", "outline": "as §4"}, "[8]": {"tested_on": "P. aeruginosa GN_043, PmxR", "conditions": "polymyxin-resistant", "outline": "as §4"}, "A. baumannii ATCC 19606": {"tested_on": "A. baumannii ATCC 19606", "conditions": "ATCC 19606", "outline": "as §4"}, "K. pneumoniae ATCC 13883": {"tested_on": "K. pneumoniae ATCC 13883", "conditions": "ATCC 13883", "outline": "as §4"}, "[9]": {"tested_on": "K. pneumoniae ATCC BAA-2146, NDM-1 pos", "conditions": "ATCC BAA-2146", "outline": "as §4"}, "A. baumannii GN_093 PmxR": {"tested_on": "A. baumannii GN_093 PmxR", "conditions": "GN 093 PmxR", "outline": "as §4"}, "P. aeruginosa ATCC 27853": {"tested_on": "P. aeruginosa ATCC 27853", "conditions": "ATCC 27853", "outline": "as §4"}},
  "note": "Positions of bridges follow the written chain, without caps; N, C: chain ends. Non-standard residues stand in square brackets, D forms with d. Residues, ends and D or L forms follow the SMILES beside them. *: point of attachment. Decanoyl(3R-OH) = CCCCCCC[C@@H](O)CC(=O)*; dDab = NCC[C@@H](N)C(=O)O; Orn = NCCC[C@H](N)C(=O)O; Dab = NCC[C@H](N)C(=O)O",
  "data": [
    {"smiles": "CCCCCCC[C@@H](O)CC(=O)N[C@H](CCN)C(=O)N[C@H]1CCNC(=O)[C@H](CC(C)C)NC(=O)[C@H](CCN)NC(=O)[C@H](CCCNC(=N)N)NC(=O)[C@H](CC(C)C)NC(=O)[C@@H](Cc2ccccc2)NC(=O)[C@H](CCN)NC1=O", "note": "[compound 8733, 3(R)OH-nC9CO-D-Dab-cyc[L-Dab-L-DAB-D-Phe-L-Leu-L-Arg-L-Dab-L-Leu]] ({Decanoyl(3R-OH)}-[dDab][Dab][Dab][dF]LR[Dab]L; lactam 2-C)", "values": [
      {"measurement": "CC50", "setting": "[1]", "result": "> 128", "unit": "µg/mL"},
      {"measurement": "CC50", "setting": "[2]", "result": "> 128", "unit": "µg/mL"},
      {"measurement": "MIC N. gonorrhoeae FA19 ATCC BAA-1838", "setting": "Neisseria gonorrhoeae", "result": 0.78, "unit": "µg/mL"},
      {"measurement": "MIC, S. Aureus ATCC 25923, MSSA", "setting": "[3]", "result": 8, "unit": "µg/mL"},
      {"measurement": "MIC, K. pneumoniae ATCC 700603, MDR", "setting": "[4]", "result": 2, "unit": "µg/mL"},
      {"measurement": "MIC, P. aeruginosa PA9704, PmxR", "setting": "[5]", "result": 2, "unit": "µg/mL"},
      {"measurement": "MIC, E. coli ATCC 25922", "setting": "E. coli ATCC 25922", "result": 2, "unit": "µg/mL"},
      {"measurement": "MIC, K. pneumoniae Cl 138-16347-20362, PmxR", "setting": "[6]", "result": 2, "unit": "µg/mL"},
      {"measurement": "MIC, K. pneumoniae Cl Koprana 10065 0661:1, PmxR", "setting": "[7]", "result": 2, "unit": "µg/mL"},
      {"measurement": "MIC, P. aeruginosa FADDI-PA070, PmxR", "setting": "[8]; Table 5", "result": 2, "unit": "µg/mL"},
      {"measurement": "MIC, A. baumannii ATCC 19606", "setting": "A. baumannii ATCC 19606", "result": 4, "unit": "µg/mL"},
      {"measurement": "MIC, K. pneumoniae ATCC 13883", "setting": "K. pneumoniae ATCC 13883", "result": 2, "unit": "µg/mL"},
      {"measurement": "MIC, K. pneumoniae ATCC BAA-2146, NDM-1 pos", "setting": "[9]", "result": 4, "unit": "µg/mL"},
      {"measurement": "MIC, A. baumannii Cl Ptyela 10073 4512:2, PmxR", "setting": "A. baumannii GN_093 PmxR", "result": 8, "unit": "µg/mL"},
      {"measurement": "MIC, P. aeruginosa ATCC 27853", "setting": "P. aeruginosa ATCC 27853", "result": 2, "unit": "µg/mL"}
    ]},
    {"smiles": "CCCCCCC[C@@H](O)CC(=O)N[C@H](CCN)C(=O)N[C@H]1CCNC(=O)[C@H](CC(C)C)NC(=O)[C@H](CCCN)NC(=O)[C@H](CCN)NC(=O)[C@H](CC(C)C)NC(=O)[C@@H](Cc2ccccc2)NC(=O)[C@H](CCN)NC1=O", "note": "[compound 988, 3(R)OH-nC9CO-D-Dab-cyc[L-Dab-L-Dab-D-Phe-L-Leu-L-Dab-L-Orn-L-Leu]] ({Decanoyl(3R-OH)}-[dDab][Dab][Dab][dF]L[Dab][Orn]L; lactam 2-C)", "values": [
      {"measurement": "CC50", "setting": "[1]", "result": 118, "unit": "µg/mL"},
      {"measurement": "CC50", "setting": "[2]", "result": "> 128", "unit": "µg/mL"},
      {"measurement": "MIC N. gonorrhoeae FA19 ATCC BAA-1838", "setting": "Neisseria gonorrhoeae", "result": 0.78, "unit": "µg/mL"},
      {"measurement": "MIC S. aureus ATCC 25923, MSSA", "setting": "[3]", "result": 16, "unit": "µg/mL"},
      {"measurement": "MIC K. pneumoniae ATCC 700603, MDR", "setting": "[4]", "result": 2, "unit": "µg/mL"},
      {"measurement": "MIC P. aeruginosa GN_105, PmxR", "setting": "[5]", "result": 2, "unit": "µg/mL"},
      {"measurement": "MIC E. coli ATCC 25922", "setting": "E. coli ATCC 25922", "result": 2, "unit": "µg/mL"},
      {"measurement": "MIC K. pneumoniae GN_106, PmxR", "setting": "[6]", "result": 2, "unit": "µg/mL"},
      {"measurement": "MIC K. pneumoniae GN_102 PmxR", "setting": "[7]", "result": 2, "unit": "µg/mL"},
      {"measurement": "MIC P. aeruginosa GN_043, PmxR", "setting": "[8]", "result": 2, "unit": "µg/mL"},
      {"measurement": "MIC A. baumannii ATCC 19606", "setting": "A. baumannii ATCC 19606", "result": 4, "unit": "µg/mL"},
      {"measurement": "MIC K. pneumoniae ATCC 13883", "setting": "K. pneumoniae ATCC 13883", "result": 2, "unit": "µg/mL"},
      {"measurement": "MIC K. pneumoniae ATCC BAA-2146, NDM-1 pos", "setting": "[9]", "result": 2, "unit": "µg/mL"},
      {"measurement": "MIC A. baumannii GN_093 PmxR", "setting": "A. baumannii GN_093 PmxR", "result": 8, "unit": "µg/mL"},
      {"measurement": "MIC P. aeruginosa ATCC 27853", "setting": "P. aeruginosa ATCC 27853", "result": 2, "unit": "µg/mL"}
    ]}
  ]
}
